Data published in US20240309018A1, “THIAZOLE-LACTAM-SPIROHETEROCYCLIC COMPOUNDS AND APPLICATIONS THEREOF” (D3 BIO (WUXI) CO., LTD, priority 2021, published 2024).

System: canine plasma albumin
Assay: Plasma protein binding (ultracentrifugation), canine; also: tested at 0.2 µM
Type: in vitro ADME
Method: The binding degree of the assay compound to human/mouse/rat/canine/monkey plasma albumin was studied.
• 1) Matrix preparation: on the day of the assay, plasma was thawed in cold water and centrifuged at 3220 rpm for 5 min to remove all clots. The pH of the resulting plasma was measured and adjusted to 7.4±0.1 using 1% phosphoric acid or IN sodium hydroxide as needed. • 2) Dilution procedure for the assay compound: the assay compound was dissolved in dimethyl sulfoxide (DMSO) to prepare stock solutions with concentrations of 10 mM and 2 mM, respectively. A 40 μM working solution was prepared by diluting 2 μL of stock solution (2 mM) with 98 μL of DMSO. A 400 μM working solution of the control compound was prepared by diluting 10 μL of stock solution with 240 μL of DMSO. The working solution of the compound (5 μL) was mixed well with a blank matrix (995 μL) at a ratio of 1:200 to prepare a loading matrix.
• a) An equal volume of 30 μL of loading matrix (n=2) was transferred to a sample collection plate to prepare a time 0 (TO) sample for residue determination. The sample was immediately matched with the corresponding blank buffer to a final volume of 60 μL, and the volume ratio of plasma to buffer in each well was 1:1. […] The mixture was centrifuged at 4000 rpm for 20 min and 100 μL of supernatant from each sample was analyzed by LC-MS/MS.

SMILES: Cc1cccc(CN2C(=O)c3nc(-c4nc(Nc5ccnn5C)ncc4C)sc3C23COC3)n1 [WX001]
- Plasma protein binding rate (unbound %): 14.3%
